# Measurements as given in paper PMC3401643 (2009).
# Target: T1, retinoid X receptor α (RXRα) (Homo sapiens, UniProt P19793)
# T1 sequence (P19793 223-462): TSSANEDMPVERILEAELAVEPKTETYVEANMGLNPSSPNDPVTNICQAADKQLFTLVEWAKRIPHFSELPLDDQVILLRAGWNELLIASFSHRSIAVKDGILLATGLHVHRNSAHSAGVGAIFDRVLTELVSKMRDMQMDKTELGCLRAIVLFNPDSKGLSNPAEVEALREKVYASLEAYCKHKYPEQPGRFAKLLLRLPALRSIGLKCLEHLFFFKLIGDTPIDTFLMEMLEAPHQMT
# Type: binding
smiles,measurement,value
"C[C@@H](C(=O)O)c1ccc(-c2ccccc2)c(F)c1 [R-Flur, (R)-flurbiprofen]",IC50,~75 µM
